Laboratory results from patent US20170066717A1, “NEW PHENYLAZETIDINECARBOXYLATE OR -CARBOXAMIDE COMPOUNDS” (INVENTIVA, priority 2014, published 2017).

Columns and labels:
Format in all cases: cell-based
NURR-1/RXRα = biological target: T1, NURR-1/RXRα (Homo sapiens, UniProt P19793); assay: Transactivation test, NURR-1-Gal4/RXRα, luciferase reporter in Cos-7 cells; details: for Emax: COS-7, induction level relative to reference XCT0135908 at 2×10^−5 M (=100%), read-out: hNurr1_RXRaFL Emax (%); for EC50: Cos-7 cells, NURR-1-Gal4/RXRα, luciferase reporter, read-out: hNurr1_RXRaFL EC50
T1 construct: expressed in transfected cells; host or cells: Cos-7 cells
T1 sequence (P19793 whole entry, the tested form may be a part): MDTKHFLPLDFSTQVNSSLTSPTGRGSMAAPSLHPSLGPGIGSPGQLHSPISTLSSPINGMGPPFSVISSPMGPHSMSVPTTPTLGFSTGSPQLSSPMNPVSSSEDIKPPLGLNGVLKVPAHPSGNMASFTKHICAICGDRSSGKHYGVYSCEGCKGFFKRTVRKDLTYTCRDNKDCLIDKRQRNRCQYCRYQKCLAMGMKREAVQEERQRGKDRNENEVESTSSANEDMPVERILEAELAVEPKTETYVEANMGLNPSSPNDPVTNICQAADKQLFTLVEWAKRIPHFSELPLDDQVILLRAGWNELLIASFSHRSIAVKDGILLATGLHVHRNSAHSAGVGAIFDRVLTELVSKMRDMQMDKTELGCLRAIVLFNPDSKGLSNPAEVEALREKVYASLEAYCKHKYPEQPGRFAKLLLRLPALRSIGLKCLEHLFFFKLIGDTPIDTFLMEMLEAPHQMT
T1 sequence (P43354 whole entry partner, the tested form may be a part): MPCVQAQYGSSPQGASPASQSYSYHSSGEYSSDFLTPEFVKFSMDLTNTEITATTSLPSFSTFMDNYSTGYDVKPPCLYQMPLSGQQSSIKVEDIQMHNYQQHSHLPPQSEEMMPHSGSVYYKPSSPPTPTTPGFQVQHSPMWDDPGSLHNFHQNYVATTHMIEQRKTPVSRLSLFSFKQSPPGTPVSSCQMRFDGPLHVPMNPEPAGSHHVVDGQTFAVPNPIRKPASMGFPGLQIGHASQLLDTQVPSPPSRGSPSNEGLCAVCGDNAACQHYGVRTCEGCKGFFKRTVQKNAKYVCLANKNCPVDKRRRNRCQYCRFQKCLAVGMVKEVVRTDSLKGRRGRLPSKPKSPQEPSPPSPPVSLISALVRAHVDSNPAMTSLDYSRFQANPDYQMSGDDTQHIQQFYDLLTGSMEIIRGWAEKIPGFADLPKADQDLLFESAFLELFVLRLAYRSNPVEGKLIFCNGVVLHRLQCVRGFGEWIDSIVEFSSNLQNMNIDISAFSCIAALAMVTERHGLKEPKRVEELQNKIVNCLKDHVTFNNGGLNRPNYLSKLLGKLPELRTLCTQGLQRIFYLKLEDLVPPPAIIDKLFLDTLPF
T1 sequence (P04386 1-147 partner limits assumed): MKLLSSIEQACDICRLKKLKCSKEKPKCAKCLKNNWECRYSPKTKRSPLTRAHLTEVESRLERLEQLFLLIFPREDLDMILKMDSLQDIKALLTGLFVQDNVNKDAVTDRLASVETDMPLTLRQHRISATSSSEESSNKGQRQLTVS

[1] = system: dopaminergic neurons of primary culture of rat embryo mesencephalon treated with MPP+; assay: Neuroprotection in primary culture of rat embryo mesencephalon treated with MPP+ (count of tyrosine hydroxylase expressing cells); details: recombinant human BDNF 10 ng/mL = 100%, 2 days with MPP+
Protocol: Another in vitro test was carried out with the compounds according to the invention, for the purpose of verifying that the molecules indeed have the expected neuroprotective effect in vitro.
The compounds were tested in a model of primary culture of rat embryo mesencephalon treated with 1-methyl-4-phenylpyridinium (MPP+), which is the active metabolite of 1-methyl-4-phenyl-1,2,3,6-tetrahydropyridine (MPTP). MPP+ enters into dopananergic neurons via the dopamine transporter and causes the death of these dopaminergic neurons. The following protocol was used.
Gestating female rats (15 days of gestation) were euthanized and the rat embryos were removed. The mesencephalons were removed. The tissue was then dissociated mechanically and by using trypsin. The cells collected after centrifugation were distributed into 96-well plates and left to stand for 5 days. The culture conditions made it possible to obtain a cell layer composed of neurons (dopaminergic and others) and astrocytes. On the 6th day, the cells were optionally treated with MPP+ in the presence or absence of test compound. After 2 days of incubation, the cells were fixed and various cell labellings were carried out; staining of the nuclei with the Hoechst fluorescent label and immunolabelling of tyrosine hydroxylase. The cells expressing tyrosine hydroxylase were counted using an image analyzer coupled to an optical microscope.
Recombinant human BDNF trophic factor (10 ng/mL) was used as reference. The activities of the compounds are given as percentages of activity relative to the BDNF reference, the activity of which is arbitrarily defined as being equal to 100%.

NURR-1/RXRγ = biological target: T2, NURR-1/RXRγ (Homo sapiens, UniProt P48443); assay: Transactivation test, NURR-1-Gal4/RXRγ, luciferase reporter in Cos-7 cells; details: for Emax: COS-7, induction level relative to reference XCT0135908 at 2×10^−5 M (=100%), read-out: hNurr1_RXRgFL Emax (%); for EC50: Cos-7 cells, NURR-1-Gal4/RXRγ, luciferase reporter, read-out: hNurr1_RXRgFL EC50
T2 construct: expressed in transfected cells; host or cells: Cos-7 cells
T2 sequence (P48443 whole entry, the tested form may be a part): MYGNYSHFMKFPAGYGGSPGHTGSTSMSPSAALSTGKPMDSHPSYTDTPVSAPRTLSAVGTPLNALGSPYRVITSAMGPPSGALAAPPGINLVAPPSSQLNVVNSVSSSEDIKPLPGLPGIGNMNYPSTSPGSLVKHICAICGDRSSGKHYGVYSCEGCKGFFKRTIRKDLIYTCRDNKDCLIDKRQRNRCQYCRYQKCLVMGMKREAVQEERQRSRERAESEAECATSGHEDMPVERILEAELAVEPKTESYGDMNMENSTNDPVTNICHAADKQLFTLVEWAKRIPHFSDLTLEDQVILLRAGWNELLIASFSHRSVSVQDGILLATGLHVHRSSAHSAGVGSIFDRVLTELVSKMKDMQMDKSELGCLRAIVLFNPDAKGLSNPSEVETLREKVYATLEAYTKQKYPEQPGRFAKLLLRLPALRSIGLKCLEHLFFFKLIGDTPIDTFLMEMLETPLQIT
T2 sequence (P43354 whole entry partner, the tested form may be a part): as the sequence (P43354 whole entry partner, the tested form may be a part) above
T2 sequence (P04386 1-147 partner limits assumed): as the sequence (P04386 1-147 partner limits assumed) above

Structure (SMILES)	Emax (NURR-1/RXRα) [%]	EC50 (NURR-1/RXRα) [nM]	percentage of activity relative to the BDNF reference ([1]; compound 1 μM) [%]	percentage of activity relative to the BDNF reference ([1]; compound 10 μM) [%]	Emax (NURR-1/RXRγ) [%]	EC50 (NURR-1/RXRγ) [nM]
Cc1cc(-c2cccc(N3CC(C(=O)O)C3)c2)cc(C(F)(F)F)c1 [Example 12, 1-[3-[3-methyl-5-(trifluoromethyl)phenyl]phenyl]azetidine-carboxylic acid]	122	46	64	74	129	48
Cc1cc(N2CC(C(=O)O)C2)cc(-n2cc(C)c3nc(C(F)(F)F)ccc32)c1 [Example 58, 1-[3-methyl-5-[3-methyl;-5-(trifluoromethyl)pyrrol[3,2,-b]pyridine-1-yl]phenyl]azetidine-3-carboxylic acid]	118	7	80	79	102	13
CC1(C)CNc2c(cc(C(F)(F)F)cc2-c2cccc(N3CC(C(=O)O)C3)c2)O1 [Example 61, 1-[3-[2,2-dimethyl-7-(trifluoromethyl)-3,4 dihydro-1,4-benzoxazin-5-yl]phenyl]azetidine-3-carboxylic acid]	91	8	85	106	107	15
Cc1cc(-c2cc(C(F)(F)F)cc3c2NCC(C)(C)O3)cc(N2CC(C(=O)O)C2)c1 [Example 64, 1-[3-[2,2,-dimethyl-7-(triflouormethyl)3,4-dihydro-1,4-benzoxazin-5-yl]-5-methylphenyl]azetidine-3-carboxylic acid]	99	4	81	92	109	4
CC(Oc1ccc(C(F)(F)F)cc1-c1cccc(N2CC(C(=O)O)C2)c1)c1ccccc1 (centres unmarked) [Example 98, 1-[3-[2-(1-phenylethoxy)-5-(trifluoromethyl)phenyl]phenyl]azetidine-3-carboxylic acid]	51	5	86	132	42	7
O=C(O)C1CN(c2cccc(-c3cc(C(F)(F)F)ccc3OCC3CCCCC3)c2)C1 [Example 104, 1-[3-[2-(cyclohenxylemthoxy)-5-(trifluoromethyl)phenyl]phenyl]azetidine-3-carboxylic acid]	40	50	109		42	43
CCOc1ccc(C(F)(F)F)cc1-c1cccc(N2CC(C(=O)O)C2)c1 [Example 109, 1-[3-[2-ethoxy-5-(trifluoromethyl)phenyl]phenyl]azetidine-3-carboxylic acid]	86	39	145	147	112	67
CCC1CN(c2cccc(N3CC(C(=O)O)C3)c2)c2ccc(C(F)(F)F)cc2O1 (centres unmarked) [Example 114, 1-[3-[2-ethyl-7-(trifluoromethyl)-2,3-dihydro-1,4-benzoxazin-4-yl]phenyl]azetidine-3-carboxylic acid]	139	9	101	89	150	11
CCCC1CN(c2cccc(N3CC(C(=O)O)C3)c2)c2ccc(C(F)(F)F)cc2O1 (centres unmarked) [Example 117, 1-[3-[2-propyl-7-(tirfluormethyl)2,3-dihydro-1,4-benzoxazin-4-yl]phenyl]azetidine-3-carboxylic acid]	103	9	75	84	125	4
CC(C)Cc1cn(-c2cccc(N3CC(C(=O)O)C3)c2)c2ccc(C(F)(F)F)cc12 [Example 125, 1-[3-[3-isobutyl-5-(trifluoromethyl)indol-1-yl]phenyl]azetidine-3-carboxylic acid]	152	4	86	107	162	2
CN(C)S(=O)(=O)c1cn(-c2cccc(N3CC(C(=O)O)C3)c2)c2ccc(C(F)(F)F)cc12 [Example 136, 1-[3-[3-(dimethylsulfamoyl)-5-(trifluoromethyl)indol-1-yl]phenyl]azetidine-3-carboxylic acid]	128	22	49	86	121	55
Cc1cn(-c2cccc(N3CC(C(=O)NCCCO)C3)c2)c2ccc(C(F)(F)F)cc12 [Example 154, N-(3-hydroxypropyl)-1-[3-[3-methyl-5-(trifluoromethyl)indol-1-yl]phenyl]azetidine-3-carboxamide]	111	< 1	67	105	104	3
Cc1cn(-c2cccc(N3CC(C(=O)NCCc4c[nH]cn4)C3)c2)c2ccc(C(F)(F)F)cc12 [Example 155, N-[2-(1H-imidazol-4-yl)ethyl]-1-[3-[3-methyl-5-(trifluoromethyl)indol-1yl]phenyl]azetidine-3-carboxamide]	123	4	49	94	116	5
Cc1cn(-c2cccc(N3CC(C(=O)NCCOCCO)C3)c2)c2ccc(C(F)(F)F)cc12 [Example 158, N-[2-(2-hydroxethoxy)ethyl]-1-[3-[3-methyl-5-(trifluoromethyl)indol-1-yl]phenyl]azetidine-3-carboxamide]	92	2	54	77	125	4
Cc1cn(-c2cccc(N3CC(C(=O)NCCC#N)C3)c2)c2ccc(C(F)(F)F)cc12 [Example 159, N-(2-cyanoethyl)-1-[3-[3-methyl-5-(trifluoromethyl)indol-1-yl]phenyl]azetidine-3-carboxamide]	115	3	73	101	110	6
Cc1cn(-c2cccc(N3CC(C(=O)NCCCn4ccnc4)C3)c2)c2ccc(C(F)(F)F)cc12 [Example 160]	115	15	54	79	124	31
COCCNC(=O)C1CN(c2cccc(-n3cc(C)c4cc(C(F)(F)F)ccc43)c2)C1 [Example 173, N-(2-methoxyethyl)-1-[3-[3-methyl-5-(trifluoromethyly)indol-1-yl]phenyl]azetidine-3-carboxamide]	103	< 1	18	72	102	5
